Results: US12152011B2, “Usnic acid derivative having TSLP secretion inhibitory ability and use thereof” (SEOUL NATIONAL UNIVERSITY HOSPITAL, priority 2018, dated 2024)

Legend:
TSLP gene = experiment: qRT-PCR of TSLP gene expression in TNF-a stimulated HaCaT cells; assay type: cell-based, human; settings: TNF-a stimulation, UA-CA treatment, FIG. 2
IL-1β gene = experiment: qRT-PCR of IL-1β gene expression in TNF-a stimulated HaCaT cells; assay type: cell-based, human; settings: TNF-a stimulation, UA-CA treatment, FIG. 3
IL-13 gene = experiment: qRT-PCR of IL-13 gene expression in TNF-a stimulated HaCaT cells; assay type: cell-based, human; settings: TNF-a stimulation, UA-CA treatment, FIG. 4
IL-25 gene = experiment: qRT-PCR of IL-25 gene expression in TNF-a stimulated HaCaT cells; assay type: cell-based, human; settings: TNF-a stimulation, UA-CA treatment, FIG. 5
IL-31 gene = experiment: qRT-PCR of IL-31 gene expression in TNF-a stimulated HaCaT cells; assay type: cell-based, human; settings: TNF-a stimulation, UA-CA treatment, FIG. 6
hypertrophic scar = experiment: Scar alleviation in rabbit ear hypertrophic scar model (biopsy, H&E histology); assay type: in vivo
Protocol: In order to confirm the efficacy of Usnic acid derivatives in relieving hypertrophic scars, the degree of scar relief by UA-CA treatment in hypertrophic scar samples was confirmed through histological comparison and pathological examination of skin tissue after biopsy.
A total of 4 rabbits weighing 3.5 kg (N2W conventional, female, 30 weeks old) were reared for a week in an environment of 21±1° C. 12-hour light/dark cycle, and the experiment was carried out. After anesthesia by intravenous administration of ketamine (60 mg/kg)+xylazine (5 mg/kg), both ears of the rabbit were sufficiently sterilized with betadine, and 5 wounds each with a diameter of 6 mm were made with a biopsy punch and a neck collar was applied. Management and supervision were made to become a hypertrophic scar model for 2 weeks after wound surgery. After confirming the hypertrophic scar model, the test material was treated twice a week for 2 weeks (untreated hypertrophic scar sample (Control), hypertrophic scar sample treated with 1, 5, and 10 mM UA-CA, 100 Thickening scar samples treated with ug/ml tranilast). After 2 weeks, visual evaluation and biopsy of the wound area were performed, followed by H&E staining, and then the changes in epidermal thickness were compared at 200 times and 400 times under a microscope.

`C=C(OC(=O)/C=C/c1ccccc1)C1=C(OC(=O)/C=C/c2ccccc2)C=C2Oc3c(C(C)=O)c(O)c(C)c(O)c3[C@@]2(C)C1=O` [UA-CA] was tested, and the “expression level of the TSLP gene (mRNA, relative to 36B4)” value (TSLP gene) was “dependently decreased”, the “expression level of the IL-1β gene (mRNA, relative to 36B4)” value (IL-1β gene) was “dependently decreased” and the “expression level of the IL-13 gene (mRNA, relative to 36B4)” value (IL-13 gene) was “dependently decreased”. The “expression level of the IL-25 gene (mRNA, relative to 36B4)” value (IL-25 gene) was “dependently decreased”, the “expression level of the IL-31 gene (mRNA, relative to 36B4)” value (IL-31 gene) was “dependently decreased” and the “scar relief compared with positive control tranilast” value (hypertrophic scar; 10 mM UA-CA vs 100 ug/ml tranilast, twice a week for 2 weeks) was “better scar relief efficacy”. For the same compound, the “scar relief compared to the untreated hypertrophic scar” value (hypertrophic scar; UA-CA 1, 5, 10 mM, twice a week for 2 weeks, FIGS. 7A-7E) was “scar relief was more advanced” and the “thickness of the epidermis compared to the untreated thickening scar” value (hypertrophic scar; UA-CA-treated sample, H&E staining, FIGS. 8A-8E) was “became thinner”.
